Values of other authors, collected in patent US6365196B1, “Controlled release solid dosage forms of lithium carbonate” (SmithKline Beecham Corporation, priority 1997, dated 2002).

solubility in water: 6 mg per ml
SMILES: O=C(O)/C=C/C(=O)O [fumaric acid]
